For one compound, Km results are on record in ChEMBL document CHEMBL1147236, “Semiplenamides A-G, fatty acid amides from a Papua New Guinea collection of the marine cyanobacterium Lyngbya semiplena” (J Nat Prod, 2003).

This assay deals with RBL-2H3. Conditions: Rattus norvegicus.

Description: Activity at AMT in rat RBL-2H3 cells

Usually Km stands for the concentration of substrate that gives half-maximal velocity. For `CCCCC/C=C\C/C=C\C/C=C\C/C=C\CCCC(=O)NCCO`, the Km was 9.3 µM.
